{"source": "paper PMC4928627", "about": "(Journal of Natural Products, 2016)", "key": {"[1]": {"tested_on": "CHIKV Indian Ocean strain 899", "experiment": "CHIKV CPE reduction assay", "type": "cell-based, chikungunya virus (CHIKV)", "settings": "BGM cells, 0.001 MOI CHIKV 899, day 5 p.i."}, "[2]": {"tested_on": "BGM cells", "experiment": "Cytotoxic/cytostatic effect in uninfected cells", "type": "cell-based, buffalo green monkey", "settings": "compound alone"}, "[3]": {"tested_on": "human cancer cell lines", "settings": "growth inhibition; cited from earlier work"}}, "data": [{"compound": "CCCCCCCC(=O)O[C@H]1/C(=C/C(=O)OC)C[C@H]2C[C@H](CO)OC(=O)C[C@H](O)C[C@@H]3C[C@H](OC(C)=O)C(C)(C)[C@H](C[C@@H]4CCO[C@H](/C=C/C(C)(C)[C@]1(O)O2)O4)O3", "note": "[compound 10]", "values": [{"measurement": "EC50 (concentration of compound that reduces the CHIKV-induced cytopathic effect by 50%)", "setting": "[1]", "value": "potent"}, {"measurement": "CC50 (concentration at which cell viability is 50% relative to untreated cells)", "setting": "[2]", "value": "nontoxic"}]}, {"compound": "CCC/C=C/C=C/C(=O)O[C@H]1/C(=C/C(=O)OC)C[C@H]2C[C@H]([C@@H](C)O)OC(=O)C[C@H](O)C[C@@H]3C[C@H](OC(C)=O)C(C)(C)[C@](O)(C[C@@H]4C/C(=C/C(=O)OC)C[C@H](/C=C/C(C)(C)[C@]1(O)O2)O4)O3", "note": "[compound 1, Bryostatin 1, reference compound]", "values": [{"measurement": "EC50 (concentration of compound that reduces the CHIKV-induced cytopathic effect by 50%)", "setting": "[1]; listed as bryostatin", "value": "ineffective"}, {"measurement": "EC50 (concentration of compound that reduces the CHIKV-induced cytopathic effect by 50%)", "setting": "[1]; listed as bryostatin 1", "value": "inactive"}]}, {"compound": "C=C1C[C@H]2C[C@]3(O)O[C@H](C[C@@H](O)CC(=O)O[C@@H](CO)C[C@@H]4C/C(=C\\C(=O)OC)[C@H](OC(=O)CCCCCCC)[C@@](O)(O4)C(C)(C)/C=C/[C@@H](C1)O2)C[C@H](O)C3(C)C", "note": "[compound 18]", "values": [{"measurement": "EC50 (concentration of compound that reduces the CHIKV-induced cytopathic effect by 50%)", "setting": "[1]", "value": "toxicity before any observable cell-protective effect"}]}, {"compound": "C=C1C[C@H]2C[C@]3(O)O[C@H](C[C@@H](O)CC(=O)O[C@@H](CO)C[C@@H]4C/C(=C\\C(=O)OC)[C@H](OC(=O)CCCCCCC)[C@@](O)(O4)C(C)(C)/C=C/[C@@H](C1)O2)C[C@H](OC(C)=O)C3(C)C", "note": "[compound 19]", "values": [{"measurement": "EC50 (concentration of compound that reduces the CHIKV-induced cytopathic effect by 50%)", "setting": "[1]", "value": "toxicity before any observable cell-protective effect"}]}, {"compound": "CCCCCCCC(=O)O[C@H]1/C(=C/C(=O)OC)C[C@H]2C[C@H](CO)OC(=O)C[C@H](O)C[C@@H]3CCC[C@H](C[C@@H]4CCO[C@H](/C=C/C(C)(C)[C@]1(O)O2)O4)O3", "note": "[compound 3]", "values": [{"measurement": "effectiveness of the analogue relative to the natural product (bryostatin)", "setting": "[3]", "value": "2–3 orders of magnitude"}]}]}
